Laboratory results from patent US7879878B2, “Quinolone derivative or salt thereof” (Astellas Pharma Inc., priority 2003, dated 2011).

Tests used:
[1] = system: Human platelet aggregation; assay: Test for assaying human platelet aggregation-inhibiting activity (ADP-induced aggregation in platelet-enriched plasma); assay type: cell-based; settings: compound at 10 μM final concentration; human PRP; aggregation induced by ADP; area-under-the curve of platelet aggregation as indicator; read-out: % inhibition (Human platelet aggregation-inhibiting action)
Method: (1) Test for Assaying Human Platelet Aggregation-Inhibiting Activity
Blood was withdrawn from healthy human volunteers (adult males), in the presence of a 1/10th volume of sodium citrate, and centrifuged to obtain supernatant platelet-enriched plasma (PRP). The platelet count in PRP was determined with an automatic blood cell counter (MEK-6258; manufactured by NIHON KOHDEN CORPORATION). Then, the platelet count in PRP was adjusted to 3×10^8/ml with platelet-poor plasma. ADP as a platelet aggregation-inducing agent was a product of MCMEDICAL, Inc. Platelet aggregation was measured using an aggregometer (MCM Hematracer 212; MCMEDICAL, Inc.). Specifically, 80 μl of PRP and 10 μl of a solution of an active ingredient or compound of the invention or a solvent (10% DMSO) were incubated together at 37° C. for one minute, to which 10 μl of ADP (50 μM) was added to induce platelet aggregation. Then, the change of the transmitting light was recorded over 5 minutes. Using the area-under-the curve of platelet aggregation as an indicator, the inhibition ratio was calculated.

human P2Y12 = target: T1, human P2Y12 (Homo sapiens, UniProt Q9H244); assay: Substitution test of the binding between human P2Y12 and 2-methylthio-ADP (2-MeS-ADP); settings: compound at 30 nM final concentration; [3H]-2-MeS-ADP; membrane fraction of C6-15 cells expressing human P2Y12
T1 construct: expressed in transfected cells; membrane fraction
Method: (2) Substitution Test of the Binding Between Human P2Y12 and 2-methylthio-ADP (2-MeS-ADP)
After C6-15 cells were inoculated on a DMEM culture medium to 1×10^6 cells in a 10-cm petri dish for culturing for one day, where 8 μg of a plasmid pEF-BOS-dhfr-human P2Y12 and 0.8 μg of pEF-BOS-neo (Nucleic Acid Res., 18, 5322, 1990) were genetically introduced with a transfection reagent (LipofectAMINE 2000; manufactured by GIBCO BRL).
24 hours after the gene introduction procedure described above, the cells with the gene introduced therein were recovered and suspended in a DMEM culture medium containing 0.6 mg/ml G418 (manufactured by GIBCO BRL), to prepare serial dilutions, which were inoculated on a 10-cm petri dish. Colonies appearing 2 weeks later were individually obtained and defined as C6-15 cell expressing the protein P2Y12, for use in the following experiment (WO 02/36631, Mol. Pharmacol., 60, 432, 2001).
The C6-15 cell expressing the protein P2Y12 was cultured and recovered. […]
1.5 μl of an active ingredient or compound of the invention and 50 μl of 0.75 nM [^3H]-2-MeS-ADP (80 Ci/mmol; manufactured by Amersham Pharmacia Biotech) were added to 100 μl of the P2Y12 protein-expressing C6-15 cell membrane fraction (100 μg/ml) thus prepared, for incubation in 50 mM Tris-HCl, pH 7.4 containing 100 mM NaCl and 50 mM MgCl2, at ambient temperature for one hour. […] Adding a microscintillator onto the glass filter, the radioactivity was assayed with a liquid scintillation counter. At the test, additionally, the radioactivity levels of such cell cultures with no addition of the compound and with addition of 1.5 μl of 100 μM 2-MeS-ADP were assayed as total binding and non-specific binding, respectively. Defining the total binding and the non-specific binding at inhibition ratios of 0% and 100%, respectively, the inhibition ratio (%) of an active ingredient or compound in accordance with the invention was calculated.

T1 sequence (Q9H244 whole entry): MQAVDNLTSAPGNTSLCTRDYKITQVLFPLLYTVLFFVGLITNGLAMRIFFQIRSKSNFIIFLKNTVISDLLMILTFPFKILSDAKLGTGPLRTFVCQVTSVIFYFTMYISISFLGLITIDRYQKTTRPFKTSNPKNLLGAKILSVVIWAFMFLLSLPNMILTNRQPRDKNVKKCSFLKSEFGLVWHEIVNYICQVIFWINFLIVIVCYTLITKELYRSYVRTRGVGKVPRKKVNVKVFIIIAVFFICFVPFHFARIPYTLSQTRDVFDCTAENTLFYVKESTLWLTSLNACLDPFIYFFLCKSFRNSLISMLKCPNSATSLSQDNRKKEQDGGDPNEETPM

Compound	inhibition at 10 µM [1] [%]	inhibition at 0.03 µM (human P2Y12) [%]	% inhibition (Inhibition activity of the binding between P2Y12 and 2-MeS-ADP) (human P2Y12) [%]
CC1(C)OCC(n2cc(C(=O)NCCP(=O)(O)O)c(=O)c3cc(F)c(NC4CCCCC4)cc32)CO1 [Example 18, [2-({[7-(cyclohexylamino)-1-(2,2-dimethyl-1,3-dioxan-5-yl)-6-fluoro-4-oxo-1,4-dihydroquinolin-3-yl]carbonyl}amino)ethyl]phosphonic acid]	92	96	–
CCOP(=O)(O)CCNC(=O)c1cn(C(CO)CO)c2cc(NC3CCCCC3)c(F)cc2c1=O [Example 22, ethyl{2-[({7-(cyclohexylamino)-6-fluoro-4-oxo-1-[2-hydroxy-1-(hydroxymethyl)ethyl]-4-oxo-1,4-dihydroquinolin-3-yl}carbonyl)amino]ethyl}phosphonic acid]	–	–	75
CCC(CC)n1cc(C(=O)NC(C)(C)C(=O)O)c(=O)c2cc(F)c(NC3CCCCC3)cc21 [Example 28, 2-({[7-(cyclohexylamino)-1-(1-ethylpropyl)-6-fluoro-4-oxo-1,4-dihydroquinolin-3-yl]carbonyl}amino)-2-methylpropionic acid]	–	63	–
